The results in this text go back to patent publication US11932658B2 (BRISTOL-MYERS SQUIBB COMPANY, priority 2016, dated 2024).

A word on the IC50: it is the midpoint of a concentration-inhibition curve.

This assay has as its target T1, PAR4 (Homo sapiens, UniProt Q96RI0).
T1 construct: expressed in transfected cells; host or cells: HEK293 PAR4 Clone 1.2A (BMS Arctic ID 383940)
T1 sequence (Q96RI0 18-385): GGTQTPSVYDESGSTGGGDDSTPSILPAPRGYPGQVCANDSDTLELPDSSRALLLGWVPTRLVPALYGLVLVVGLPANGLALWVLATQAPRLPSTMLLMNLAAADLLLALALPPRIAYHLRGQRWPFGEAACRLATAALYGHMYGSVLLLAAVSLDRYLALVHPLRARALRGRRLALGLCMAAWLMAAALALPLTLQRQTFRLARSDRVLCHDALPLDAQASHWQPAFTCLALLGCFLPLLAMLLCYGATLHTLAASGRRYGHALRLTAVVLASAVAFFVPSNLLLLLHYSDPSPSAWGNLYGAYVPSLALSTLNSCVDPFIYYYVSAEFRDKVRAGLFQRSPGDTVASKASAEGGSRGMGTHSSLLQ
The experiment in a line: PAR4 FLIPR assay (antagonism of agonist peptide-induced calcium mobilization). The assay is classed as cell-based. The source says:
The FLIPR assay is an exemplary in vitro assay for measuring the activity of the PAR4 antagonists of the present invention. In this assay, intracellular calcium mobilization is induced in PAR4 expressing cells by a PAR4 agonist and calcium mobilization is monitored.
HEK293 cells stably expressing PAR4 were generated by a standard method of transfection of human PAR4 (F2R23) cDNA expression vector and selected based on PAR4 protein expression or mRNA expression. […] These cells also express endogenous PAR1 and can elicit calcium signal upon stimulation with PAR1 agonist peptide. Therefore, the same cells were also used to determine selectivity against PAR1 and agonist activity for both receptors. Cells from HEK293 PAR4 Clone 1.2A (BMS Arctic ID 383940) were propagated and used for calcium mobilization studies.
FLIPR-based calcium mobilization assay in HEK293 cells was used to measure PAR4 antagonism, agonism, and selectivity against PAR1. The activity of the PAR4 antagonists of the present invention were tested in PAR4 expressing cells by monitoring H-Ala-Phe(4-F)-Pro-Gly-Trp-Leu-Val-Lys-Asn-Gy-NH2-induced intracellular calcium mobilization. Counter screens for agonist activity and PAR1 antagonist activity were also performed. Briefly, PAR1/PAR4-expressing HEK293 cells were grown in DMEM (Life Technology, Grand Island, NY) containing 10% heat-inactivated FBS, 1% Penicillin-Streptomycin, 10 μg/mL blasticidin, and 100 μg/mL Zeocin at 37° C. with 5% CO2. Cells were plated overnight prior to the experiment in a black 384-well Purecoat Amine clear bottom plate (Becton Dickinson Biosciences, San Jose, CA) at 10,000 cells/well in 30 μL growth medium and incubated in a humidified chamber at 37° C. with 5% CO2 overnight. Prior to compound addition, the cell medium was replaced with 40 μL of 1× calcium and magnesium-containing Hank's Balanced Saline Solution (HBSS) (with 20 mM HEPES) and 1:1000 diluted fluorescent calcium indicator (Codex Biosolutions, Gaithersburg, MD). After a 30 minute incubation period at 37° C. and a further 30 minute incubation and equilibration period at room temperature, 20 μL test compound (diluted in 1×HBSS buffer) was added at various concentrations at 0.17% dimethyl sulfoxide (DMSO) final concentration. Changes in fluorescence intensity were measured using a Functional Drug Screening System (FDSS, Hamamatsu, Japan) to determine agonist activities. The cells were then incubated for 30 minutes at room temperature followed by addition of 20 μL of agonist peptide for antagonist activity measurement. […] Compound potency was derived from 11-point concentration-response curves.
For orientation: Calcium assays in cells follow changes in intracellular calcium, usually with a dye or a luminescent sensor.

As to `COc1cnc2c(-c3nc4c(C)cc5c(c4s3)OC[C@H](COC(=O)Nc3ccc(C#N)nc3)O5)cc(C)cc2n1` [Example 38, (R)-(2-(2-methoxy-7-methylquinoxalin-5-yl)-4-methyl-7,8-dihydro-[1,4]dioxino[2′,3′:3,4]benzo[1,2-d]thiazol-7-yl)methyl (6-cyanopyridin-3-yl)carbamate], the IC50 came out at 1.3 nM. Regarding `COc1cnc2c(-c3nc4c(Cl)cc5c(c4s3)OC[C@H](COC(=O)Nc3ccc4scnc4c3)O5)cc(C)cc2n1` [Example 39, (R)-(4-chloro-2-(2-methoxy-7-methylquinoxalin-5-yl)-7,8-dihydro-[1,4]dioxino[2′,3′:3,4]benzo[1,2-d]thiazol-7-yl)methyl benzo[d]thiazol-5-ylcarbamate], the IC50 was determined as 18 nM. Next, `COc1cnc2c(-c3nc4c(Cl)cc5c(c4s3)OC[C@H](COC(=O)Nc3ccc4ncsc4c3)O5)cc(C)cc2n1` [Example 40, (R)-(4-chloro-2-(2-methoxy-7-methylquinoxalin-5-yl)-7,8-dihydro-[1,4]dioxino[2′,3′:3,4]benzo[1,2-d]thiazol-7-yl)methyl benzo[d]thiazol-6-ylcarbamate]: 97 nM. Turning to `COc1cnc2c(-c3nc4c(C)cc5c(c4s3)OC[C@H](COC(=O)Nc3ccc(F)nc3)O5)cc(C)cc2n1` [Example 41, (R)-(2-(2-methoxy-7-methylquinoxalin-5-yl)-4-methyl-7,8-dihydro-[1,4]dioxino[2′,3′:3,4]benzo[1,2-d]thiazol-7-yl)methyl (6-fluoropyridin-3-yl)carbamate], the IC50 came out at 1.6 nM. With `COc1cnc2c(-c3nc4c(C)cc5c(c4s3)OC[C@H](COC(=O)Nc3cncc(F)c3)O5)cc(C)cc2n1` [Example 42, (R)-(2-(2-methoxy-7-methylquinoxalin-5-yl)-4-methyl-7,8-dihydro-[1,4]dioxino[2′,3′:3,4]benzo[1,2-d]thiazol-7-yl)methyl (5-fluoropyridin-3-yl)carbamate] the figure was 50 nM; with `COc1cncc(NC(=O)OC[C@H]2COc3c(cc(C)c4nc(-c5cc(C)cc6nc(OC)cnc56)sc34)O2)c1` [Example 43, (R)-(2-(2-methoxy-7-methylquinoxalin-5-yl)-4-methyl-7,8-dihydro-[1,4]dioxino[2′,3′:3,4]benzo[1,2-d]thiazol-7-yl)methyl (5-methoxypyridin-3-yl)carbamate], 7.9 nM. Take `COc1cnc2c(-c3nc4c(C)cc5c(c4s3)OC[C@H](COC(=O)Nc3ccnc(C)c3)O5)cc(C)cc2n1` [Example 44, (R)-(2-(2-methoxy-7-methylquinoxalin-5-yl)-4-methyl-7,8-dihydro-[1,4]dioxino[2′,3′:3,4]benzo[1,2-d]thiazol-7-yl)methyl (2-methylpyridin-4-yl)carbamate]: the IC50 was determined as 0.8 nM.

For the compound `COc1cc(NC(=O)OC[C@H]2COc3c(cc(C)c4nc(-c5cc(C)cc6nc(OC)cnc56)sc34)O2)ccn1` [Example 45, (R)-(2-(2-methoxy-7-methylquinoxalin-5-yl)-4-methyl-7,8-dihydro-[1,4]dioxino[2′,3′:3,4]benzo[1,2-d]thiazol-7-yl)methyl (2-methoxypyridin-4-yl)carbamate], the IC50 came to 1.1 nM.

As for `COc1cnc2c(-c3nc4c(C)cc5c(c4s3)OC[C@H](COC(=O)Nc3cccc(C#N)c3)O5)cc(C)cc2n1` [Example 46, (R)-(2-(2-methoxy-7-methylquinoxalin-5-yl)-4-methyl-7,8-dihydro-[1,4]dioxino[2′,3′:3,4]benzo[1,2-d]thiazol-7-yl)methyl (3-cyanophenyl)carbamate], the IC50 came out at 1 nM. Next, `COc1cnc2c(-c3nc4c(C)cc5c(c4s3)OC[C@H](COC(=O)Nc3ccc(Cl)nc3)O5)cc(C)cc2n1` [Example 47, (R)-(2-(2-methoxy-7-methylquinoxalin-5-yl)-4-methyl-7,8-dihydro-[1,4]dioxino[2′,3′:3,4]benzo[1,2-d]thiazol-7-yl)methyl (6-chloropyridin-3-yl)carbamate]: 1.2 nM; `COc1cnc2c(-c3nc4c(C)cc5c(c4s3)OC[C@H](COC(=O)Nc3ccncc3)O5)cc(C)cc2n1` [Example 48, (R)-(2-(2-methoxy-7-methylquinoxalin-5-yl)-4-methyl-7,8-dihydro-[1,4]dioxino[2′,3′:3,4]benzo[1,2-d]thiazol-7-yl)methyl pyridin-4-ylcarbamate]: 25 nM. Next, `COc1cnc2c(-c3nc4c(C)cc5c(c4s3)OC[C@H](COC(=O)Nc3ccc4scnc4c3)O5)cc(C)cc2n1` [Example 49, (R)-(2-(2-methoxy-7-methylquinoxalin-5-yl)-4-methyl-7,8-dihydro-[1,4]dioxino[2′,3′:3,4]benzo[1,2-d]thiazol-7-yl)methyl benzo[d]thiazol-5-ylcarbamate]: 49 nM. As to `COc1cnc2c(-c3nc4c(C)cc5c(c4s3)OC[C@H](COC(=O)Nc3ccc4ncsc4c3)O5)cc(C)cc2n1` [Example 50, (R)-(2-(2-methoxy-7-methylquinoxalin-5-yl)-4-methyl-7,8-dihydro-[1,4]dioxino[2′,3′:3,4]benzo[1,2-d]thiazol-7-yl)methyl benzo[d]thiazol-6-ylcarbamate], the IC50 was determined as 140 nM.

Take `COc1cnc2c(-c3nc4c(C)cc5c(c4s3)OC[C@H](COC(=O)Nc3cncc(C#N)c3)O5)cc(C)cc2n1` [Example 51, (R)-(2-(2-methoxy-7-methylquinoxalin-5-yl)-4-methyl-7,8-dihydro-[1,4]dioxino[2′,3′:3,4]benzo[1,2-d]thiazol-7-yl)methyl (5-cyanopyridin-3-yl)carbamate]: the IC50 stood at 16 nM. Consider `COc1cnc2c(-c3nc4c(C)cc5c(c4s3)OC[C@H](COC(=O)Nc3ccc(-c4cccs4)nc3)O5)cc(C)cc2n1` [Example 53, (R)-(2-(2-methoxy-7-methylquinoxalin-5-yl)-4-methyl-7,8-dihydro-[1,4]dioxino [2′,3′:3,4]benzo[1,2-d]thiazol-7-yl)methyl (6-(thiophen-2-yl)pyridin-3-yl)carbamate], for which the IC50 amounted to 54 nM.

Regarding `COc1cnc2c(-c3nc4c(C)cc5c(c4s3)OC[C@H](COC(=O)Nc3cnc4c(c3)ncn4C)O5)cc(C)cc2n1` [Example 54, (R)-(2-(2-methoxy-7-methylquinoxalin-5-yl)-4-methyl-7,8-dihydro-[1,4]dioxino[2′,3′:3,4]benzo[1,2-d]thiazol-7-yl)methyl (3-methyl-3H-imidazo[4,5-b]pyridin-6-yl)carbamate], the IC50 is 1.6 nM. As to `COc1cnc2c(-c3nc4c(C)cc5c(c4s3)OC[C@H](COC(=O)Nc3ccc(-n4cnc(C)n4)nc3)O5)cc(C)cc2n1` [Example 55, (R)-(2-(2-methoxy-7-methylquinoxalin-5-yl)-4-methyl-7,8-dihydro-[1,4]dioxino [2′,3′:3,4]benzo[1,2-d]thiazol-7-yl)methyl (6-(3-methyl-1H-1,2,4-triazol-1-yl)pyridin-3-yl)carbamate], the IC50 was 21 nM. `COc1cnc2c(-c3nc4c(C)cc5c(c4s3)OC[C@H](COC(=O)Nc3ccc(C)nc3)O5)cc(C)cc2n1` [Example 56, (R)-(2-(2-methoxy-7-methylquinoxalin-5-yl)-4-methyl-7,8-dihydro-[1,4]dioxino[2′,3′:3,4]benzo[1,2-d]thiazol-7-yl)methyl (6-methylpyridin-3-yl)carbamate]: the IC50 came to 1 nM. `COc1cnc2c(-c3nc4c(C)cc5c(c4s3)OC[C@H](COC(=O)Nc3cncc(C)c3)O5)cc(C)cc2n1` [Example 57, (R)-(2-(2-methoxy-7-methylquinoxalin-5-yl)-4-methyl-7,8-dihydro-[1,4]dioxino[2′,3′:3,4]benzo[1,2-d]thiazol-7-yl)methyl (5-methylpyridin-3-yl)carbamate]: the IC50 is 9.7 nM.

On to `COc1cnc2c(-c3nc4c(Cl)cc5c(c4s3)OC[C@H](COC(=O)Nc3cnc(Cl)nc3)O5)cc(C)cc2n1` [Example 58, (R)-(4-chloro-2-(2-methoxy-7-methylquinoxalin-5-yl)-7,8-dihydro-[1,4]dioxino[2′,3′:3,4]benzo[1,2-d]thiazol-7-yl)methyl (2-chloropyrimidin-5-yl)carbamate], for which the IC50 came out at 8.8 nM.
